From paper PMC7586336 (Journal of Medicinal Chemistry, 2020)
Values after ≈ are worked out from the molar mass of the structure shown.

Assays:
[1] = tested on: P. aeruginosa PAO1 wt; experiment: Antibiotic susceptibility; assay type: cell-based, Pseudomonas aeruginosa
[2] = tested on: P. aeruginosa PA14 ΔlecB; experiment: Antibiotic susceptibility; assay type: cell-based; conditions: Pseudomonas aeruginosa
[3] = tested on: P. aeruginosa PA14 ΔlecA; experiment: Antibiotic susceptibility; assay type: cell-based; conditions: Pseudomonas aeruginosa
[4] = tested on: P. aeruginosa PA14 wt; experiment: Antibiotic susceptibility; assay type: cell-based, Pseudomonas aeruginosa
[5] = molecular target: E. coli gyrase (Escherichia coli, UniProt P0AES4+P0AES6); assay type: biochemical
[6] = tested on: Calu-3 HTB-55; experiment: Cell permeability, Transwell system; assay type: in vitro ADME, human; conditions: after 4 h, data not shown
[7] = Microsomal stability, mouse liver microsomes; assay type: in vitro ADME; conditions: one experiment
[8] = tested on: E. coli DSM 1116; experiment: Antibiotic susceptibility; assay type: cell-based; conditions: Escherichia coli, DSM1116
[9] = Microsomal stability, human liver microsomes; assay type: in vitro ADME; conditions: one experiment
[10] = tested on: HEK293 cells; experiment: Cytotoxicity; assay type: cell-based, human; conditions: HEK 293 and A549, 100 μM, 48 h incubation
[11] = tested on: E. coli K12 MG1655; experiment: Antibiotic susceptibility; assay type: cell-based; conditions: Escherichia coli
[12] = tested on: A549 cells; experiment: Cytotoxicity; assay type: cell-based, human; conditions: 48 h, MTT
[13] = P. aeruginosa PAO1 wt + 1 μg/mL PMBN
[14] = P. aeruginosa PA14 wt + 1 μg/mL PMBN

Chain of E. coli gyrase (P0AES4 whole entry, one chain of several): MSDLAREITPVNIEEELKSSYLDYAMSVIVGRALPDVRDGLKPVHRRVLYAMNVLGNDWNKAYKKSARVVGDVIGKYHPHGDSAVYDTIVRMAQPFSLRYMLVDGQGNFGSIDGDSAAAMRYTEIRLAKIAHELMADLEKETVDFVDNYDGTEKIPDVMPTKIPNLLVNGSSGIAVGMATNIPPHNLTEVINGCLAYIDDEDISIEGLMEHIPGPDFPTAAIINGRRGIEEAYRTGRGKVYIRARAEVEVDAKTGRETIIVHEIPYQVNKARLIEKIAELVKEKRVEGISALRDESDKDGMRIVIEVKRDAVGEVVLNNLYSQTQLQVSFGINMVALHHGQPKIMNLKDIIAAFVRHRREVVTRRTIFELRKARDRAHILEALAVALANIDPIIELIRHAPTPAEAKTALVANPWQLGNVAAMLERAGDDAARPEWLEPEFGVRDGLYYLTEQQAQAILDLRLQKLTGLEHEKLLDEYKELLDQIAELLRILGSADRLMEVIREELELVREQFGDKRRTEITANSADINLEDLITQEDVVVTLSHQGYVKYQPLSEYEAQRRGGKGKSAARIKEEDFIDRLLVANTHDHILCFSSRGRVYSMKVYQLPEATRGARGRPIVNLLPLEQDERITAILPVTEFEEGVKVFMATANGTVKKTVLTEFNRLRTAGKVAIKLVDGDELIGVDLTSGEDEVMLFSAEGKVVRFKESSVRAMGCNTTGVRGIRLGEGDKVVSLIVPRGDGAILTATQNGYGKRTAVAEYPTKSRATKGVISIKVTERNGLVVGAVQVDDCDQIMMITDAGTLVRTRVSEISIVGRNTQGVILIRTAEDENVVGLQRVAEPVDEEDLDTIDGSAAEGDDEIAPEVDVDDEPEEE

SMILES	MIC ([1]; Pseudomonas aeruginosa, PAO1) [µg/mL]	MIC [2] [µg/mL]	MIC [3] [µg/mL]	MIC [1, 13] [µg/mL]	MIC [4, 14] [µg/mL]	MIC ([4]; Pseudomonas aeruginosa, PA14) [µg/mL]	factor of decrease in gyrase inhibitory concentration compared to 3 [5]	permeation (apical to basal) over Calu-3 HTB-55 cells [6]	metabolic stability CLMIC MLM [7] [μL/min/mg protein]	MIC [8] [µg/mL]	metabolic stability CLMIC HLM [9] [μL/min/mg protein]	acute cytotoxicity (in words) [10]	MIC [11] [µg/mL]	cytotoxicity @ 100 μM A549 [12]
O=C(O)c1cn(C2CC2)c2cc(N3CCNCC3)c(F)cc2c1=O [compound 3, ciprofloxacin, reference compound]	0.025 to 0.08 (≈ 0.0754 to 0.241 µM)	0.05 to 0.08 (≈ 0.151 to 0.241 µM)	0.05 to 0.08 (≈ 0.151 to 0.241 µM)	–	–	–	–	–	–	–	–	–	–	–
C#CCN1CCN(c2cc3c(cc2F)c(=O)c(C(=O)O)cn3C2CC2)CC1 [compound 20, N-Propargyl-ciprofloxacin]	4 to 8 (≈ 10.8 to 21.7 µM)	–	4 to 8 (≈ 10.8 to 21.7 µM)	1 to 2	0.025 to 0.5	2 to 4 (≈ 5.41 to 10.8 µM)	3.5	–	–	–	–	–	–	–
O=C(Cn1cc(CN2CCN(c3cc4c(cc3F)c(=O)c(C(=O)O)cn4C3CC3)CC2)nn1)Nc1ccc(S[C@@H]2O[C@H](CO)[C@H](O)[C@H](O)[C@H]2O)cc1 [compound 22]	16 to 32 (≈ 21.6 to 43.3 µM)	16 to 32 (≈ 21.6 to 43.3 µM)	16 to 32 (≈ 21.6 to 43.3 µM)	4 to 8	4 to 16	–	–	No detectable permeation	10	2 to 4 (≈ 2.7 to 5.41 µM)	10	no cytotoxicity	–	–
O=C(Cn1cc(CCN2CCN(c3cc4c(cc3F)c(=O)c(C(=O)O)cn4C3CC3)CC2)nn1)Nc1ccc(S[C@@H]2O[C@H](CO)[C@H](O)[C@H](O)[C@H]2O)cc1 [compound 23]	–	–	–	32 to 64	16 to 64	–	–	–	–	–	–	–	8 to 16 (≈ 10.6 to 21.2 µM)	–
O=C(CCn1cc(CN2CCN(c3cc4c(cc3F)c(=O)c(C(=O)O)cn4C3CC3)CC2)nn1)Nc1ccc(S[C@@H]2O[C@H](CO)[C@H](O)[C@H](O)[C@H]2O)cc1 [compound 24]	–	8 to 32 (≈ 10.6 to 42.5 µM)	8 to 16 (≈ 10.6 to 21.2 µM)	4 to 8	8 to 16	8 to 16 (≈ 10.6 to 21.2 µM)	–	–	–	2 to 4 (≈ 2.65 to 5.31 µM)	–	–	–	–
O=C(CCn1cc(CCN2CCN(c3cc4c(cc3F)c(=O)c(C(=O)O)cn4C3CC3)CC2)nn1)Nc1ccc(S[C@@H]2O[C@H](CO)[C@H](O)[C@H](O)[C@H]2O)cc1 [compound 25]	–	–	–	32 to 64	32 to 64	–	–	–	–	–	–	–	–	–
O=C(CCCn1cc(CN2CCN(c3cc4c(cc3F)c(=O)c(C(=O)O)cn4C3CC3)CC2)nn1)Nc1ccc(S[C@@H]2O[C@H](CO)[C@H](O)[C@H](O)[C@H]2O)cc1 [compound 26]	16 to 32 (≈ 20.8 to 41.7 µM)	8 to 16 (≈ 10.4 to 20.8 µM)	8 to 16 (≈ 10.4 to 20.8 µM)	4 to 8	–	8 to 16 (≈ 10.4 to 20.8 µM)	–	–	–	2 to 32 (≈ 2.6 to 41.7 µM)	–	–	1 to 2 (≈ 1.3 to 2.6 µM)	–
O=C(CCCn1cc(CCN2CCN(c3cc4c(cc3F)c(=O)c(C(=O)O)cn4C3CC3)CC2)nn1)Nc1ccc(S[C@@H]2O[C@H](CO)[C@H](O)[C@H](O)[C@H]2O)cc1 [compound 27]	–	–	–	32 to 64	32 to 64	–	–	–	–	4 to 32 (≈ 5.12 to 40.9 µM)	–	–	–	–
O=C(CCCCn1cc(CN2CCN(c3cc4c(cc3F)c(=O)c(C(=O)O)cn4C3CC3)CC2)nn1)Nc1ccc(S[C@@H]2O[C@H](CO)[C@H](O)[C@H](O)[C@H]2O)cc1 [compound 28]	32 to 64 (≈ 40.9 to 81.9 µM)	32 to 64 (≈ 40.9 to 81.9 µM)	–	8 to 16	2 to 8	–	–	–	–	4 to 32 (≈ 5.12 to 40.9 µM)	–	–	2 to 4 (≈ 2.56 to 5.12 µM)	–
O=C(CCCCn1cc(CCN2CCN(c3cc4c(cc3F)c(=O)c(C(=O)O)cn4C3CC3)CC2)nn1)Nc1ccc(S[C@@H]2O[C@H](CO)[C@H](O)[C@H](O)[C@H]2O)cc1 [compound 29]	–	–	–	32 to 64	32 to 64	–	–	–	–	4 to 32 (≈ 5.03 to 40.2 µM)	–	–	–	–
C[C@@H]1O[C@H](CNS(=O)(=O)c2ccc(CCn3cc(CN4CCN(c5cc6c(cc5F)c(=O)c(C(=O)O)cn6C5CC5)CC4)nn3)s2)[C@@H](O)[C@H](O)[C@@H]1O [compound 30]	–	–	–	32 to 64	–	–	–	No detectable permeation	10	16 to 32 (≈ 21 to 42 µM)	15	no cytotoxicity	8 to 16 (≈ 10.5 to 21 µM)	–9 ± 15 % inhibition
